# System: SEM cells
# Experiment: cell viability relative to DMSO control; higher = less cytotoxic
# Settings: 48 h
# Method in brief: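 NOMO1 or SEM (500 cells/well) or P12-Ichikawa (1000 cells/well) leukemia cells were adapted for at least four passages in each medium. They were seeded in 1536-well plates (5 μl) and pin-dosed with library compounds in DMSO over an 11-point threefold series, 47 μM to 0.79 nM. CellTiter-Glo One luminescence was read after 48 h at 37°C. Viability is the per-plate percentage relative to DMSO wells, with cell-free wells as background.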
# [1] = HPLM + 10% dialyzed FBS, 0.000781 µM
# [2] = HPLM + 10% dialyzed FBS, 0.00234 µM
# [3] = HPLM + 10% dialyzed FBS, 0.00702 µM
# [4] = HPLM + 10% dialyzed FBS, 0.0211 µM
# [5] = HPLM + 10% dialyzed FBS, 0.0632 µM
# [6] = HPLM + 10% dialyzed FBS, 0.19 µM
# [7] = HPLM + 10% dialyzed FBS, 0.569 µM
# [8] = HPLM + 10% dialyzed FBS, 1.71 µM
# [9] = HPLM + 10% dialyzed FBS, 5.12 µM
# [10] = HPLM + 10% dialyzed FBS, 15.4 µM
# [11] = HPLM + 10% dialyzed FBS, 46.1 µM
# [12] = RPMI 5 mM glucose + 10% FBS, 0.000781 µM
# [13] = RPMI 5 mM glucose + 10% FBS, 0.00234 µM
# [14] = RPMI 5 mM glucose + 10% FBS, 0.00702 µM
# [15] = RPMI 5 mM glucose + 10% FBS, 0.0211 µM
# [16] = RPMI 5 mM glucose + 10% FBS, 0.0632 µM
# [17] = RPMI 5 mM glucose + 10% FBS, 0.19 µM
# [18] = RPMI 5 mM glucose + 10% FBS, 0.569 µM
# [19] = RPMI 5 mM glucose + 10% FBS, 1.71 µM
# [20] = RPMI 5 mM glucose + 10% FBS, 5.12 µM
# [21] = RPMI 5 mM glucose + 10% FBS, 15.4 µM
# [22] = RPMI 5 mM glucose + 10% FBS, 46.1 µM
# [23] = RPMI 5 mM glucose + 10% dialyzed FBS, 0.000781 µM
# [24] = RPMI 5 mM glucose + 10% dialyzed FBS, 0.00234 µM
# [25] = RPMI 5 mM glucose + 10% dialyzed FBS, 0.00702 µM
# [26] = RPMI 5 mM glucose + 10% dialyzed FBS, 0.0211 µM
# [27] = RPMI 5 mM glucose + 10% dialyzed FBS, 0.0632 µM
# [28] = RPMI 5 mM glucose + 10% dialyzed FBS, 0.19 µM
# [29] = RPMI 5 mM glucose + 10% dialyzed FBS, 0.569 µM
# [30] = RPMI 5 mM glucose + 10% dialyzed FBS, 1.71 µM
# [31] = RPMI 5 mM glucose + 10% dialyzed FBS, 5.12 µM
# [32] = RPMI 5 mM glucose + 10% dialyzed FBS, 15.4 µM
# [33] = RPMI 5 mM glucose + 10% dialyzed FBS, 46.1 µM
Structure (SMILES),cell viability [1] [%],cell viability [2] [%],cell viability [3] [%],cell viability [4] [%],cell viability [5] [%],cell viability [6] [%],cell viability [7] [%],cell viability [8] [%],cell viability [9] [%],cell viability [10] [%],cell viability [11] [%],cell viability [12] [%],cell viability [13] [%],cell viability [14] [%],cell viability [15] [%],cell viability [16] [%],cell viability [17] [%],cell viability [18] [%],cell viability [19] [%],cell viability [20] [%],cell viability [21] [%],cell viability [22] [%],cell viability [23] [%],cell viability [24] [%],cell viability [25] [%],cell viability [26] [%],cell viability [27] [%],cell viability [28] [%],cell viability [29] [%],cell viability [30] [%],cell viability [31] [%],cell viability [32] [%],cell viability [33] [%]
CN(C)c1ccc2cc(C(=O)N[C@@H](CCCNC(=N)CCl)C(=O)NCc3ccccc3)ccc2c1,114,115,101,115,117,112,113,121,110,101,11.7,113,112,104,111,112,110,120,90.9,101,74.1,5.29,104,105,99.7,104,122,108,115,90,106,84,6.08
COc1cccc2c1C(=O)c1c(O)c3c(c(O)c1C2=O)C[C@@](O)(C(C)=O)C[C@@H]3O[C@H]1C[C@H](N)[C@H](O)[C@H](C)O1,74.5,83.9,85.3,90.3,55.3,25.3,7.3,7.11,6.71,7.18,5.34,82.3,98.4,91.9,77.3,40,21.8,7.4,7.93,7.89,7.75,6.05,88.6,89,96.2,84.3,59.2,29.4,9.48,8.29,8.52,8.22,6.01
NC(=O)Nc1cc(-c2ccc(CN3CCOCC3)cc2)sc1C(N)=O,103,113,106,108,103,32.9,33.3,22.2,12.9,11.5,8.44,118,120,133,116,111,20.2,19.9,17.1,10.8,6.3,6.6,104,110,109,108,91.2,22.9,21.6,14.5,7.42,7.32,5.7
CC(C)NCC(O)COc1ccc(CCOCC2CC2)cc1 (centres undefined),94.9,94.5,101,107,106,116,99.1,90.4,107,91.4,95.1,–,–,–,–,–,–,–,–,–,–,–,115,104,110,113,109,113,125,114,97.6,105,108
COc1cc2ncnc(Nc3cccc(Br)c3)c2cc1OC,85.1,84.7,94.3,94.7,102,98,114,118,114,103,91.5,113,87.9,102,131,122,119,113,136,121,110,89.9,75,75.2,86,97.4,110,103,120,110,104,96.3,78.6
C#C[C@]1(O)CC[C@H]2[C@@H]3CCc4cc(OC)ccc4[C@H]3CC[C@@]21C,115,108,114,119,122,114,110,107,40.3,111,107,119,114,120,127,126,125,120,130,109,145,109,110,111,113,125,120,110,107,134,106,122,97.7
CC(NCc1ccc2c(c1)[nH]/c(=N\C(=O)c1ccc(-c3cn[nH]c3)s1)n2CC(C)(C)O)C(C)(C)C (centres undefined),112,89.6,62.7,52.4,47.7,41,24.9,10.9,8.32,2.2,2.08,96.7,112,76.3,58.5,48,36.5,31.3,14.9,4.21,1.66,1.98,122,85.4,79.8,42.4,45.7,41.5,27.2,16.2,6.16,1.94,1.53
CC(C)C[C@H](NC(=O)[C@H](Cc1ccccc1)NC(=O)c1cnccn1)B(O)O,82.8,88.2,95.9,46.6,5.6,4.11,3.83,3.37,2.58,1.95,1.04,90.9,102,113,38.4,6.07,3.74,3.71,3.19,2.6,1.56,0.977,90.4,84.7,84.5,31.1,6.17,4.26,4.12,3.78,3.01,2.1,1.1
OC(COC1=C2C(=O)\C=C(/OC2=CC=C1)C([O-])=O)COC3=C4C(=O)\C=C(/OC4=CC=C3)C([O-])=O,65.3,72.3,76,73.9,77.7,43.5,80.8,88,95.9,73.1,96.8,71,83.6,85.6,84.3,86.6,20.2,65.6,74.7,99.4,65.9,90.9,72.1,74.5,76.6,73.5,91.4,64,82.6,95.1,102,76.9,97.7
Cc1ccc(C(=O)c2cc(O)c(O)c([N+](=O)[O-])c2)cc1,78.2,96.4,98.5,81.4,97.7,91.1,115,110,108,111,95.6,92.6,88,103,100,96.7,101,101,99.7,110,87.6,95.9,83.1,82.8,88.7,96.1,93.4,94,80.8,89.4,102,88.8,101
CC1(C)CC(O)CC(C)(C)N1[O],87.2,80.3,89.8,86.9,81.6,89.1,44.7,94.3,89.5,92.1,84.2,102,114,96.3,105,98.6,96.6,27.7,101,113,103,99.5,98.6,94.6,97.8,97.5,94.3,95.4,32.7,106,108,102,85.4
Cc1ccc(-c2ncn(-c3ccc(Nc4nccc(-c5cccc(N6CCOCC6)c5)n4)cc3)n2)cn1,75.3,93,103,94.5,70.9,65.3,4.95,3.93,3.48,3.55,6.89,90.3,98.9,101,104,75.1,32.3,5.46,4.61,3.18,3.66,5.27,81.6,95.5,90.7,94.4,66.9,48,5.8,4.65,4.48,3.85,5.94
CCCCCCCCc1ccc(CCC(N)(CO)CO)cc1,103,108,108,111,101,120,110,118,97.1,83.2,2.73,99.4,115,107,120,122,111,115,121,93.7,107,2.59,105,116,117,110,104,110,115,109,107,124,3.38
C[C@@H]1C[C@H]2[C@@H]3CC\C4=C\C(=O)\C=C/[C@]4(C)[C@@]3(Cl)[C@@H](O)C[C@]2(C)[C@@]1(OC(=O)C5=CC=CO5)C(=O)CCl,28.4,82.2,45.9,53.8,61,59.3,53.2,47.7,36.9,45.6,52,32.3,81.8,35.8,62.1,61,50.4,50.4,45.1,36.9,37.3,50.8,30.9,76.5,39,52.5,64.1,47,46.8,44.7,28.8,43,36.5
CN(C)CC/C=C1/c2ccccc2COc2ccc(CC(=O)O)cc21,85.4,81.8,108,120,113,130,132,124,101,141,126,123,106,124,127,136,132,143,144,121,148,142,–,–,–,–,–,–,–,–,–,–,–
CCNc1cc(NC2CCC(O)CC2)nc(Nc2ccc3c(ccn3Cc3ccccc3)c2)n1 (centres undefined),102,119,129,127,118,137,124,147,123,117,105,–,–,–,–,–,–,–,–,–,–,–,–,–,–,–,–,–,–,–,–,–,–
